{"source": "patent US20260124197A1", "about": "“NOVEL HETEROBICYCLIC COMPOUND FOR INHIBITING YAP-TEAD INTERACTION AND PHARMACEUTICAL COMPOSITION COMPRISING SAME” (priority 2022, published 2026)", "data": [{"tested_on": "TEAD transcriptional activity", "assay": "TEAD reporter activity inhibition test (luciferase reporter, MCF7 cell line)", "type": "cell-based", "details": "Homo sapiens; TEAD (GTIIC) firefly luciferase reporter MCF7 cell line, 24 hours, ONE-Glo luminescence", "procedure": "Experimental Example 1: TEAD Reporter Activity Inhibition Test\nThe ability of the synthetic compounds to inhibit TEAD target gene transcription was measured. This evaluation method measures the transcriptional activity of TEAD by measuring the luciferase luminescence expressed when TEAD binds to a target gene and activates transcription using the MCF7 cell line (BPS Bioscience, Inc., USA) in which a firefly luciferase reporter gene has been introduced into the specific binding structure of TEAD, GTIIC (5′-ACATTCCA-3′). Cell lines were cultured in MEM medium added with 10% FBS, 1% Penicillin/Streptomycin, 1% non-essential amino acids, 10 μg/ml insulin, and 400 μg/ml Geneticin, and Geneticin was excluded when testing for inhibition of TEAD reporter activity. […] cells/100 μl were dispensed into a white 96-well plate and cultured for 6 hours. 50 μl of the test compound diluted to 3× concentration was mixed into each well. After 24 hours of cell culture, the luciferase signal was measured by luminescence using the ONE-Glo luciferase assay system (Promega, E6120) following the manufacturer's protocol. The 50% inhibition value (IC50) for TEAD transcriptional activity was calculated using GraphPad Prism 9.\nIf the IC50 value is less than 100 nM, it is indicated as A, if it is at least 100 nM but less than 500 nM, it is indicated as B, and if it is 500 nM or more, it is indicated as C.", "units": {"IC50": "nM"}, "values": [{"smiles": "CNS(=O)(=O)c1ccc2c(c1)c(-c1cn(C)cn1)cn2-c1ccccc1", "note": "[Example 26, N-methyl-3-(1-methyl-1H-imidazol-4-yl)-1-phenyl-1H-indole-5-sulfonamide]", "IC50": "≥ 500"}, {"smiles": "CNS(=O)(=O)c1ccc2c(c1)c(-c1cn(C)cn1)cn2-c1ccc(C(C)(C)C)cc1", "note": "[Example 40, 1-(4-(t-butyl)phenyl)-N-methyl-3-(1-methyl-1H-imidazol-4-yl)-1H-indole-5-sulfonamide]", "IC50": "< 100"}, {"smiles": "CNS(=O)(=O)c1ccc2c(-c3cn(C)cn3)cn(-c3ccc(C(F)(F)F)cc3)c2c1", "note": "[Example 33, N-methyl-3-(1-methyl-1H-imidazol-4-yl)-1-(4-(trifluoromethyl)phenyl)-1H-indole-6-sulfonamide]", "IC50": "100 to 500"}, {"smiles": "CNS(=O)(=O)c1ccc2c(c1)c(-c1ccn(C)n1)cn2-c1ccc(C(F)(F)F)cc1", "note": "[Example 3, N-methyl-3-(1-methyl-1H-pyrazol-3-yl)-1-(4-(trifluoromethyl)phenyl)-1H-indole-5-sulfonamide]", "IC50": "100 to 500"}, {"smiles": "CNS(=O)(=O)c1ccc2c(c1)c(-c1ccc(C)s1)cn2-c1ccc(C(F)(F)F)cc1", "note": "[Example 9, N-methyl-3-(5-methylthiophen-2-yl)-1-(4-(trifluoromethyl)phenyl)-1H-indole-5-sulfonamide]", "IC50": "100 to 500"}, {"smiles": "CNS(=O)(=O)c1ccc2c(c1)c(-c1cn(CC(F)(F)F)cn1)cn2-c1ccc(C(F)(F)F)cc1", "note": "[Example 37, N-methyl-3-(1-(2,2,2-trifluoroethyl)-1H-imidazol-4-yl)-1-(4-(trifluoromethyl)phenyl)-1H-indole-5-sulfonamide]", "IC50": "< 100"}, {"smiles": "CNS(=O)(=O)c1ccc2c(c1)c(-c1cnn(C)c1)cn2-c1ccc(C(F)(F)F)cc1", "note": "[Example 4, N-methyl-3-(1-methyl-1H-pyrazol-4-yl)-1-(4-(trifluoromethyl)phenyl)-1H-indole-5-sulfonamide]", "IC50": "100 to 500"}, {"smiles": "CNS(=O)(=O)c1ccc2c(c1)c(-c1cn(CC(=O)N(C)C)cn1)cn2-c1ccc(C(F)(F)F)cc1", "note": "[Example 47, N,N-dimethyl-2-(4-(5-(N-methylsulfamoyl)-1-(4-(trifluoromethyl)phenyl)-1H-indol-3-yl)-1H-imidazole-1-yl) acetamide]", "IC50": "≥ 500"}, {"smiles": "CCNS(=O)(=O)c1ccc2c(c1)c(-c1cn(C)cn1)cn2-c1ccc(C(F)(F)F)cc1", "note": "[Example 7, N-ethyl-3-(1-methyl-1H-imidazol-4-yl)-1-(4-(trifluoromethyl)phenyl)-1H-indole-5-sulfonamide]", "IC50": "100 to 500"}, {"smiles": "CNS(=O)(=O)c1ccc2c(c1)c(-c1cn(Cc3ccccc3F)cn1)cn2-c1ccc(C(F)(F)F)cc1", "note": "[Example 30, 3-(1-(2-fluorobenzyl)-1H-imidazol-4-yl)-N-methyl-1-(4-(trifluoromethyl)phenyl)-1H-indole-5-sulfonamide]", "IC50": "< 100"}, {"smiles": "CNS(=O)(=O)c1ccc2c(c1)c(-c1c[nH]cn1)cn2-c1ccc(C(F)(F)F)cc1", "note": "[Example 29, 3-(1H-imidazol-4-yl)-N-methyl-1-(4-(trifluoromethyl)phenyl)-1H-indole-5-sulfonamide]", "IC50": "100 to 500"}, {"smiles": "CNS(=O)(=O)c1ccc2c(c1)c(-c1cn3c(n1)CCC3)cn2-c1ccc(C(F)(F)F)cc1", "note": "[Example 45, 3-(6,7-dihydro-5H-pyrrolo[1,2-a]imidazol-2-yl)-N-methyl-1-(4-(trifluoromethyl)phenyl)-1H-indole-5-sulfonamide]", "IC50": "< 100"}, {"smiles": "CNS(=O)(=O)c1ccc2c(c1)c(-c1nccnc1C)cn2-c1ccc(C(F)(F)F)cc1", "note": "[Example 1, N-methyl-3-(3-methylpyrazin-2-yl)-1-(4-(trifluoromethyl)phenyl)-1H-indole-5-sulfonamide]", "IC50": "≥ 500"}, {"smiles": "CNS(=O)(=O)c1ccc2c(c1)c(-c1cn(CCS(C)(=O)=O)cn1)cn2-c1ccc(C(F)(F)F)cc1", "note": "[Example 48, N-methyl-3-(1-(2-(methylsulfonyl)ethyl)-1H-imidazol-4-yl)-1-(4-(trifluoromethyl)phenyl)-1H-indole-5-sulfonamide]", "IC50": "100 to 500"}, {"smiles": "CNS(=O)(=O)c1ccc2c(c1)c(-c1cnco1)cn2-c1ccc(C(F)(F)F)cc1", "note": "[Example 41, N-methyl-3-(oxazol-5-yl)-1-(4-(trifluoromethyl)phenyl)-1H-indole-5-sulfonamide]", "IC50": "100 to 500"}, {"smiles": "CNS(=O)(=O)c1ccc2c(c1)c(-c1cn(C)cn1)cn2-c1ccc(C#N)cc1", "note": "[Example 22, 1-(4-cyanophenyl)-N-methyl-3-(1-methyl-1H-imidazol-4-yl)-1H-indole-5-sulfonamide]", "IC50": "≥ 500"}, {"smiles": "CN(C)S(=O)(=O)c1ccc2c(c1)c(-c1cn(C)cn1)cn2-c1ccc(C(F)(F)F)cc1", "note": "[Example 19, N,N-dimethyl-3-(1-methyl-1H-imidazol-4-yl)-1-(4-(trifluoromethyl)phenyl)-1H-indole-5-sulfonamide]", "IC50": "≥ 500"}, {"smiles": "CNS(=O)(=O)c1ccc2c(c1)c(-c1cn(C)cn1)cn2-c1ccc(OC(F)(F)F)cc1", "note": "[Example 5, N-methyl-3-(1-methyl-1H-imidazol-4-yl)-1-(4-(trifluoromethoxy)phenyl)-1H-indole-5-sulfonamide]", "IC50": "100 to 500"}, {"smiles": "CNS(=O)(=O)c1ccc2c(c1)c(-c1cccc(F)c1F)cn2-c1ccc(C(F)(F)F)cc1", "note": "[Example 25, 3-(2,3-difluorophenyl)-N-methyl-1-(4-(trifluoromethyl)phenyl)-1H-indole-5-sulfonamide]", "IC50": "< 100"}, {"smiles": "CNS(=O)(=O)c1ccc2c(c1)c(-c1ccc(C)o1)cn2-c1ccccc1", "note": "[Example 24, N-methyl-3-(5-methylfuran-2-yl)-1-phenyl-1H-indole-5-sulfonamide]", "IC50": "100 to 500"}, {"smiles": "CNS(=O)(=O)c1ccc2c(c1)c(-c1ccccc1)cn2-c1ccc(C(F)(F)F)cc1", "note": "[Example 17, N-methyl-3-phenyl-1-(4-(trifluoromethyl)phenyl)-1H-indole-5-sulfonamide]", "IC50": "100 to 500"}, {"smiles": "CNS(=O)(=O)c1ccc2c(c1)c(-c1cn(C)cn1)cn2-c1ccc(Cl)cc1", "note": "[Example 14, 1-(4-chlorophenyl)-N-methyl-3-(1-methyl-1H-imidazol-4-yl)-1H-indole-5-sulfonamide]", "IC50": "100 to 500"}, {"smiles": "CNS(=O)(=O)c1ccc2c(c1)c(-c1ccncc1)cn2-c1ccc(C(F)(F)F)cc1", "note": "[Example 15, N-methyl-3-(pyridin-4-yl)-1-(4-(trifluoromethyl)phenyl)-1H-indole-5-sulfonamide]", "IC50": "100 to 500"}, {"smiles": "CNS(=O)(=O)c1ccc2c(c1)c(-c1cn(C)cn1)cn2-c1ccc(C2CCCCC2)cc1", "note": "[Example 18, 1-(4-cyclohexylphenyl)-N-methyl-3-(1-methyl-1H-imidazol-4-yl)-1H-indole-5-sulfonamide]", "IC50": "≥ 500"}, {"smiles": "CNS(=O)(=O)c1ccc2c(c1)c(-c1cn(C)cn1)cn2-c1cccc(C(F)(F)F)c1", "note": "[Example 21, N-methyl-3-(1-methyl-1H-imidazol-4-yl)-1-(3-(trifluoromethyl)phenyl)-1H-indole-5-sulfonamide]", "IC50": "100 to 500"}, {"smiles": "CNS(=O)(=O)c1ccc2c(c1)c(-c1ccc(Cl)o1)cn2-c1ccc(C(F)(F)F)cc1", "note": "[Example 36, 3-(5-chlorofuran-2-yl)-N-methyl-1-(4-(trifluoromethyl)phenyl)-1H-indole-5-sulfonamide]", "IC50": "100 to 500"}, {"smiles": "CNS(=O)(=O)c1ccc2c(c1)c(N1CC(F)C1)cn2-c1ccc(C(F)(F)F)cc1", "note": "[Example 46, 3-(3-fluoroazetidin-1-yl)-N-methyl-1-(4-(trifluoromethyl)phenyl)-1H-indole-5-sulfonamide]", "IC50": "< 100"}]}]}
